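48-hour exposure; five concentrations; linearly interpolated endpoints. GI50: concentration for 50% inhibition of growth. Definition used: TGI = concentration required for complete inhibition of growth.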
Experiments:
Experiment in all cases: NCI anticancer screen, dose series, 48 h
[1] = tested on: SK-OV-3 ovarian
[2] = tested on: NCI-H460 lung
[3] = tested on: TK-10 renal
[4] = tested on: MDA-MB-435
[5] = tested on: SF-268 CNS
[6] = tested on: UACC-62 melanoma
[7] = tested on: SNB-19 CNS
[8] = tested on: OVCAR-5 ovarian
[9] = tested on: OVCAR-3 ovarian
[10] = tested on: LOX IMVI melanoma
[11] = tested on: CAKI-1 renal
[12] = tested on: K-562 leukemia
[13] = tested on: HT29 colon
[14] = tested on: 786-0 renal
[15] = tested on: DU-145 prostate
[16] = tested on: SN12C renal
[17] = tested on: COLO 205 colon
[18] = tested on: HS 578T breast
[19] = tested on: CCRF-CEM leukemia
[20] = tested on: OVCAR-4 ovarian
[21] = tested on: SK-MEL-2 melanoma
[22] = tested on: HCT-116 colon
[23] = tested on: HOP-92 NSCLC
[24] = tested on: MDA-MB-231 breast
[25] = tested on: PC-3 prostate
[26] = tested on: NCI-H23 lung
[27] = tested on: HCC-2998 colon
[28] = tested on: MALME-3M melanoma
[29] = tested on: HOP-62 NSCLC
[30] = tested on: SK-MEL-28 melanoma
[31] = tested on: RPMI-8226 leukemia
[32] = tested on: OVCAR-8 ovarian
[33] = tested on: SF-539 CNS
[34] = tested on: BT-549 breast
[35] = tested on: NCI-H522 lung
[36] = tested on: RXF 393 renal
[37] = tested on: A498 renal
[38] = tested on: SF-295 CNS
[39] = tested on: EKVX NSCLC
[40] = tested on: HL-60(TB) leukemia
[41] = tested on: M14 melanoma
[42] = tested on: T-47D breast
[43] = tested on: U251 CNS
[44] = tested on: A549 NSCLC
[45] = tested on: HCT-15 colon
[46] = tested on: SW-620 colon
[47] = tested on: NCI/ADR-RES ovarian
[48] = tested on: MCF7 breast
[49] = tested on: SK-MEL-5 melanoma
[50] = tested on: UACC-257 melanoma
[51] = tested on: MDA-MB-468 breast
[52] = tested on: UO-31 renal
[53] = tested on: SR leukemia
[54] = tested on: NCI-H226 lung
[55] = tested on: IGROV1 ovarian
[56] = tested on: ACHN renal

What does the source list for `COc1cc(/C=C/C(=O)c2ccc(S(=O)(=O)NCCNc3nc(Nc4ccc(F)cc4)nc(N(C)C)n3)cc2)cc(OC)c1OC`?
GI50 [1]: 21.8 µM; TGI [1]: 58.9 µM; GI50 [2]: 5.12 µM; TGI [2]: 17.8 µM; GI50 [3]: 13.1 µM; TGI [3]: 40.9 µM; GI50 [4]: 2.8 µM; TGI [4]: 7.68 µM; GI50 [5]: 11.7 µM; TGI [5]: 63.7 µM; GI50 [6]: 8.28 µM; TGI [6]: 21.4 µM; GI50 [7]: 11.2 µM; TGI [7]: 23.4 µM; GI50 [8]: 12.9 µM; TGI [8]: 26.8 µM; GI50 [9]: 6.18 µM; TGI [9]: 26.4 µM; GI50 [10]: 1.71 µM; TGI [10]: 3.1 µM; GI50 [11]: 5.2 µM; TGI [11]: 35.6 µM; GI50 [12]: 2.73 µM; TGI [12]: > 100 µM; GI50 [13]: 1.93 µM; TGI [13]: 3.53 µM; GI50 [14]: 2.94 µM; TGI [14]: 12 µM; GI50 [15]: 10.9 µM; TGI [15]: 34.3 µM; GI50 [16]: 5.71 µM; TGI [16]: 21.5 µM; GI50 [17]: 4.78 µM; TGI [17]: 19.2 µM; GI50 [18]: 8.24 µM; TGI [18]: 46.7 µM; GI50 [19]: 3.62 µM; TGI [19]: > 100 µM; GI50 [20]: 8.02 µM; TGI [20]: 63.4 µM; GI50 [21]: 13.5 µM; TGI [21]: 28.3 µM; GI50 [22]: 1.77 µM; TGI [22]: 3.68 µM; GI50 [23]: 11.5 µM; TGI [23]: 37.7 µM; GI50 [24]: 4.41 µM; TGI [24]: 21 µM; GI50 [25]: 3.22 µM; TGI [25]: 30.7 µM; GI50 [26]: 3.03 µM; TGI [26]: 10.9 µM; GI50 [27]: 1.62 µM; TGI [27]: 3 µM; GI50 [28]: 11.9 µM; TGI [28]: 25.7 µM; GI50 [29]: 14.1 µM; TGI [29]: 29 µM; GI50 [30]: 6.13 µM; TGI [30]: 19.3 µM; GI50 [31]: 2.5 µM; TGI [31]: 7.69 µM; GI50 [32]: 11.1 µM; TGI [32]: 34.7 µM; GI50 [33]: 1.71 µM; TGI [33]: 3.18 µM; GI50 [34]: 2.25 µM; TGI [34]: 7.52 µM; GI50 [35]: 6.45 µM; TGI [35]: 20.1 µM; GI50 [36]: 1.45 µM; TGI [36]: 3.12 µM; GI50 [37]: 11.3 µM; TGI [37]: 23.8 µM; GI50 [38]: 2.16 µM; TGI [38]: 4.73 µM; GI50 [39]: 4.85 µM; TGI [39]: 16.3 µM; GI50 [40]: 2.64 µM; TGI [40]: 9.4 µM; GI50 [41]: 3.28 µM; TGI [41]: 11.5 µM; GI50 [42]: 3.48 µM; TGI [42]: 51.3 µM; GI50 [43]: 1.81 µM; TGI [43]: 3.54 µM; GI50 [44]: 12.2 µM; TGI [44]: 30.9 µM; GI50 [45]: 1.8 µM; TGI [45]: 3.44 µM; GI50 [46]: 1.95 µM; TGI [46]: 3.8 µM; GI50 [47]: 3.38 µM; TGI [47]: 13.4 µM; GI50 [48]: 1.96 µM; TGI [48]: 4.28 µM; GI50 [49]: 3.39 µM; TGI [49]: 12.8 µM; GI50 [50]: 15.1 µM; TGI [50]: 31.4 µM; GI50 [51]: 2 µM; TGI [51]: 4.58 µM; GI50 [52]: 4.45 µM; TGI [52]: 17 µM; GI50 [53]: 2.42 µM; TGI [53]: 7.6 µM; GI50 [54]: 4.47 µM; TGI [54]: 31.9 µM; GI50 [55]: 16.1 µM; TGI [55]: 31 µM; GI50 [56]: 5.13 µM; TGI [56]: 19.8 µM

From PubChem BioAssay (NCI)
